Measurements taken from patent US20210102200A1, “SMALL MOLECULE TARGETED RECRUITMENT OF A NUCLEASE TO RNA” (The Scripps Research Institute, priority 2018, published 2021).
“Also recorded” adds a separate entry of the source.

Key:
[1] = test system: pri-miR-96; assay: In vitro cleavage of pri-miR-96 by RNase L (fluorescence-based and gel mapping); assay type: biochemical; details: in vitro competition
Description: Determination of RNA cleavage by fluorescence: A model RNase L substrate RNA1 labeled with a 5′ 6-Fluorescein and 3′ Iowa Black® FQ (5′-6FAM-UUAUCAAAU […] 3′ (SEQ ID NO: 1)—Iowa Black® FQ: RNA 1) was purchased from Integrated DNA Technologies, Inc. (IDT), which also HPLC purified the oligonucleotide. A model of pri-miR-96 RNA labeled with 5′ 6-Fluorescein and 3′ Quencher (IQ4, structure undisclosed) (5′-6FAM […] […] 3′ (SEQ ID NO: 2)—IQ4: RNA 2) was purchased from and HPLC purified by Chemgenes. Solutions of RNA 1 or RNA 2 were folded at 70° C. for 5 min and cooled to room temperature in RNase L Buffer without MgCl2, β-mercaptoethanol or ATP. After cooling, the RNA was supplemented with 10 mM MgCl2, fresh 7 mM β-mercaptoethanol, and 50 μM of ATP. […] Fluorescence intensity (Ex: 485 nm, Em: 528 nm) was measured on a BioTek FLx800 plate reader. Relative Fluorescence Enhancement was calculated by normalizing the fluorescent signal of treated RNA samples to the fluorescent signal of untreated RNA samples. Percentage RNA Cleavage was calculated by normalizing sample fluorescent signals relative to the maximum fluorescent signal, set as 100%. […] Normalized RNA Cleavage was calculated by normalizing sample fluorescent signals relative to the maximum fluorescent signal (compound with no tRNA), set as 1. […]

[2] = test system: pri-miR-96; assay: pri-miR-96 levels / cleavage in cells by RT-qPCR; assay type: cell-based
Method: (§1) Cell culture: All cells were maintained at 37° C. with 5% CO2. MDA-MB-231 (HTB-26, ATCC) cells were cultured in RPMI 1640 medium with L-glutamine & 25 mM HEPES (Corning) supplemented with 10% FBS (Sigma) and 1×Antibiotic-Antimycotic (Corning). A549 (CCL-185, ATCC), HeLa (CCL-2, ATCC), and MCF7 (HTB-22, ATCC) cells were cultured in DMEM medium with 4.5 g/L glucose (Corning), supplemented with 10% FBS (Sigma), 1×Glutagro (Corning), and 1×Antibiotic-Antimycotic (Corning). MCF10a (CRL-10317, ATCC) cells were cultured in DMEM/F12 50/50 with L-glutamine & 15 mM HEPES (Corning), supplemented with 10% FBS (Sigma), 20 ng/mL human epidermal growth factor (Pepro Tech Inc.), […] hydrocortisone (Pfaltz & Bauer), 100 ng/mL cholera toxin (Sigma-Alrich), 10 μg/mL insulin (Sigma-Aldrich), and 1×Antibiotic-Antimycotic (Corning). […]
(§2) RNA isolation and RT-qPCR: Total RNA was extracted from untreated and treated cells by using a Quick-RNA MiniPrep (Zymo Research) per the manufacturer's protocol. […] RNA expression levels were determined using the ΔΔCt method and normalized with U6 small nuclear RNA as a housekeeping gene. Upon treatment with chimeric compound 2, relative cleavage levels were calculated according to equation 2 (Eq. 2) in order to control for the effect of parent compound 1a, on pri-miR-96 expression: […]

[3] = test system: mature miR-96; assay: Mature miR-96 levels in cells by RT-qPCR; assay type: cell-based; details: MDA-MB-231 cells
Method: as §1, §2

[4] = biological target: pri-miR-96's Drosha site; details: parent compound, pri-miR-96 Drosha site; cited from earlier work

## Targaprimir-96 [Compound 1a]
[1]
  Cleavage at U12 by 2 upon addition of the parent compound: inhibited
[2]; MDA-MB-231 cells, RT-qPCR
  pri-miR-96 levels: increased; also recorded: boosted
[2]; constant concentration of 2, increasing concentrations of 1a
  2-mediated pri-miR-96 cleavage upon co-treatment with 1a: decreased pri-miR-96 cleavage levels in a dose dependent fashion; also recorded: reduced
[3]
  mature miR-96 levels: reduced
[4]
  Kd: 20 nM
